Assays:
Experiment in all cases: relative viability (nuclei count vs DMSO), 5 days (fraction); higher = more cells survive
[1] = compound: C=CCc1cccc(/C=N/NC(=O)CN2CCN(Cc3ccccc3)CC2)c1O [PAC-1] + COc1cc2c(Oc3ccc(NC(=O)C4(C(=O)Nc5ccc(F)cc5)CC4)cc3F)ccnc2cc1OCCCN1CCOCC1 [Foretinib] (partner 0.25 µM)
Procedure, shortened: (§1)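 Relative viability equals treated-well nuclei counts divided by vehicle-well nuclei counts. Counts came from 4× images of lung cancer cell lines grown in 1536-well plates for 5 days after pin-tool dosing on the day after seeding. Dosing used one drug alone or a fixed anchor-drug dose plus five library-drug doses (not always all listed) in √10 steps, and values are medians of duplicate plates.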

[2] = compound: C=CC(=O)Nc1cc(-n2c(=O)ccc3cnc4ccc(-c5ccc(NS(C)(=O)=O)cc5)cc4c32)ccc1C [BMX-IN-1] + CCNC(=O)c1noc(-c2cc(C(C)C)c(O)cc2O)c1-c1ccc(CN2CCOCC2)cc1 [Luminespib] (partner 0.01 µM)
Procedure, shortened: as §1

[3] = compound: C=CCc1cccc(/C=N/NC(=O)CN2CCN(Cc3ccccc3)CC2)c1O [PAC-1] + N=C(N)NC(=N)NCCc1ccccc1 [Phenformin] (partner 250 µM)
Procedure, shortened: as §1

[4] = compound: C=CC(=O)N1CCC[C@@H](n2nc(-c3ccc(Oc4ccccc4)cc3)c3c(N)ncnc32)C1 [Ibrutinib] + CCNC(=O)c1noc(-c2cc(C(C)C)c(O)cc2O)c1-c1ccc(CN2CCOCC2)cc1 [Luminespib] (partner 0.01 µM)
Procedure, shortened: as §1

SK-MES-1
relative viability ([1]; first compound 0.02 µM): 0.816 | relative viability ([1]; first compound 0.06325 µM): 1.03 | relative viability ([1]; first compound 0.2 µM): 0.851 | relative viability ([1]; first compound 2 µM): 0.943 | relative viability ([2]; first compound 0.02 µM): 0.831 | relative viability ([2]; first compound 0.2 µM): 0.879 | relative viability ([2]; first compound 0.6325 µM): 0.835 | relative viability ([2]; first compound 2 µM): 0.921 | relative viability ([3]; first compound 0.02 µM): 0.638 | relative viability ([3]; first compound 0.06325 µM): 0.661 | relative viability ([3]; first compound 0.2 µM): 0.381 | relative viability ([3]; first compound 2 µM): 0.645 | relative viability ([4]; first compound 0.005 µM): 0.619 | relative viability ([4]; first compound 0.01581 µM): 0.66 | relative viability ([4]; first compound 0.05 µM): 0.77 | relative viability ([4]; first compound 0.1581 µM): 0.842 | relative viability ([4]; first compound 0.5 µM): 0.443
